Assay results taken from paper PMC6479099, “Aminoguanidines: New leads for treatment of Giardia duodenalis infection” (International Journal for Parasitology: Drugs and Drug …, 2019).
Values after ≈ are worked out from the molar mass of the structure shown. Where two headings read alike, the source gives them in different places.

Legend:
[1] = system: Giardia duodenalis BAH2c2 strain, assemblage A; test: Resazurin reduction assay, assemblage A isolate; type: cell-based; settings: BAH2c2, 24 h; for IC50: resazurin metabolic assay, read-out: IC50, Assemblage A
Method: (§1) G. duodenalis (BAH2c2 and BAH12 strain) was cultivated according to the method of Clark and Diamond in Keister's modified TYI-S-33 medium, supplemented with heat inactivated foetal bovine serum (Hyclone™, Thermo Fisher Scientific, Scoresby, Victoria, Australia) at 37 °C in plastic 9 mL screw-capped test tubes (nunc, Thermo Fisher Scientific, Scoresby, Victoria, Australia). Subcultures were performed once a confluent monolayer was observed, approximately 2–3 times per week ([Clark and Diamond, 2002]).
(§2) The in-vitro compound efficacy was determined using a resazurin reduction assay as previously described ([Benere et al., 2007]). The media of confluent cultures was replaced with fresh media and the cultures were placed on ice for 40 min to detach trophozoites. Trophozoites were enumerated using a haemocytometer and 50 000 trophozoites were added to each test well of a 96 well plate. Doubling or tripling dilutions of the test compounds were added to wells beginning at 25 or 50 μM compound concentration (previously prepared in DMSO). Metronidazole and DMSO (vehicle only) were used as controls. Plates were incubated under anaerobic conditions, using anaerobic gas generating sachets, (AnaeroGen, Thermo Fisher Scientific, Scoresby, Victoria, Australia) for 24 h at 37 °C. After incubation the media was removed and replaced with an equal volume of warm PBS. Resazurin (Alamarblue, Thermo Fisher Scientific, Scoresby, Victoria, Australia) was then added at 10% of the total volume of the wells. Plates were further incubated (1.5 h) for colour development and absorbance read at 570 nm and 630 nm. The percentage resazurin reduction was then calculated using the following formula:((εoxi630 x A570) – (εoxi570 x A630))/((εred570 x C630)-([…])) x 100Where: εoxi630 = 34798, εoxi570 = 80586, A570 = absorbance at 570 nm, A630 = absorbance at 630 nm, εred570 = 155677, εred630 = 5494, C630 = absorbance of negative control well at 630 nm and C570 = absorbance of negative control well at 570 nm.
(§3) For the resazurin reduction assay the mean and standard error of the mean were determined with each assay completed in triplicate. The IC50 was calculated using the log (inhibitor) vs. normalised response – variable slope function in Graphpad Prism. For the adherence assay mean and standard error of the mean were calculated and data analysed using an unpaired t-test, relative to untreated control.
(§4) The IC50 of each compound was determined using a resazurin reduction assay, which measures the metabolic activity of cells, using the log (inhibitor) vs. normalised response – variable slope function in Graphpad Prism. The compounds were tested against an assemblage A (BAH2c2, 24 h) and an assemblage B (BAH12, 24 h) isolate (Table 1). […] The effect of the compounds on the proliferation of Giardia trophozoites (BAH2c2) was also determined.
Absorbance was measured (630 and 570 nm), percent reduction of resazurin calculated and data presented as a percentage of the growth control. Treatment groups are: square - metronidazole; triangle –NCL 099; diamond - robenidine; and circle - NCL 062. Error ± SEM, n = 3. Data represents a typical experiment. Note the break in the x-axis indicates a change in the scale of drug concentration.

[2] = system: Giardia duodenalis BAH12, assemblage B; test: Resazurin reduction assay, assemblage B isolate; type: cell-based; settings: BAH12, 24 h
Method: as §1, §2, §3, §4

[3] = system: Giardia trophozoites (BAH2c2); test: Proliferation of Giardia trophozoites (resazurin, 96 h); type: cell-based, Giardia duodenalis; settings: BAH2c2, 1000 trophozoites per well, read-out: IC50prol, Assemblage A (50% inhibition in the proliferation assay)
Method: The effect of the compounds on the proliferation of Giardia trophozoites was determined following the protocol outlined above, with the following modifications. The number of trophozoites was decreased to 1000 per well and the cells were incubated in the presence of each compound for 96 h at 37 °C.
as §4

[4] = system: G. duodenalis trophozoites; test: Giardia recovery assay; type: cell-based, Giardia duodenalis; settings: 5 h at 5x the IC50, counts at 24 and 48 h post exposure
Method: G. duodenalis trophozoites were harvested on ice as outlined above and 5 × 10^5 cells/mL were added to 1.5 mL centrifuge tubes. […] After exposure cells were collected by placing tubes on ice for 40 min followed by centrifugation at 900×g for 5 min. The supernatant was removed and cells were resuspended in 8 mL of fresh media (in a 9 mL culture tube). The number of trophozoites was counted using a haemocytometer and cells were incubated for 48 h with cell numbers being determined at 24 and 48 h.
Fig. 7 Recovery assay of Giardia duodenalis exposed to robenidine and metronidazole. Giardia trophozoites were exposed to robenidine or metronidazole for 5 h at 5x the IC50. Key: closed circle – growth control, triangle – metronidazole, square – robenidine, open circle – NCL 062, diamond – NCL 099. Cell numbers were determined at 24 and 48 h post exposure. Error ± SD.

Q: What does the source list for `N=C(N/N=C/c1ccc(Cl)cc1)N/N=C/c1ccc(Cl)cc1` [Robenidine, robenidine]?
A: IC50 [1]: 2.9 ± 2.9 µM; MLC (minimum lethal concentration), Assemblage A ([1]; concentration at which no metabolism of resazurin was observed): 2.8 to 8.3 µM; IC50 ([1]; Giardia duodenalis, 24 h): 2 µM; MLC, Assemblage B [2]: 16.6 µM (≈ 5.55 µg/mL); IC50 ([2]; Giardia duodenalis, resazurin metabolic assay): 4.7 ± 0.6 µM; IC50 [3]: 1.2 ± 0.7 µM; Recovery of trophozoites after short-term exposure [4]: unable to recover
